Source: patent US20260344670A1, “BIXLOZONE MIXTURES WITH PETHOXAMID” (FMC CORPORATION, priority 2022, published 2026)

How the values were obtained:
Assay type in all cases: in vivo
Solanum nigrum (SOLNI) = test: pre-emergence control of SOLNI in corn (efficacy, Colby synergy)
Source text: (§1) [formula] • where ppm=milligrams of active ingredient (=a.i.) per liter of spray mixture X=% action by component A using p ppm of active ingredient Y=% action by component B using q ppm of active ingredient. If the ratio R defined as the action actually observed (O) divided by the expected action (E) is >1 then the action of the combination is superadditive, i.e. there is a synergistic effect. For a more detailed description of the Colby formula, see Colby, S. R. “Calculating Synergistic and Antagonistic Responses of Herbicide Combination”, Weeds, Vol. 15, pages 20-22; 1967; see also Limpel et al., Proc. NEWCC 16:48-53 (1962).
(§2) As used herein, rating timings correspond to the following: A1=weed assessment at BBCH 11-12; A2=4 weeks after the application; A3=when ZEAMX crop reaches BBCH 18 (row closure); and A4=BBCH 51-59 of the ZEAMX crop.
(§3) The herbicidal compounds bixlozone and pethoxamid were applied in a variety of forms and at a variety of amounts, application rates, and normalities. Efficacy of the herbicidal compositions was evaluated with reference to a scale of 0% to 100% in comparison with untreated control plots. 0 means no damage to the harmful plants and 100 means complete destruction of the harmful plants. Plants per square meter is indicated by “pl/m^2”, and grams per hectare is indicated by “g/ha”. The acronym “EC” means emulsifiable concentrate (a liquid, homogenous formulation to be applied as an emulsion after dilution with water); “SC” means suspension concentrate (a stable suspension of active ingredient(s) with water as the fluid); “ZC” refers to a mixed formulation of CS and SC (a stable suspension of capsules and active ingredient(s) in a fluid, normally intended for dilution with water before use).
Various forms, compositions, and mixtures of bixlozone and pethoxamid were applied to corn before emergence. […] There was equivalent efficacy for fixed rate of bixlozone combined with pethoxamid: 1200 or 900 g/ha. Efficacy was reduced when bixlozone rate decreased from 250 to 150 g/ha. […]

[1] = tested on: Sorghum halepense (SORHA); test: pre-emergence control of SORHA in corn (efficacy, Colby synergy)
Source text: as §1, §2
(§4) The herbicidal compounds bixlozone and pethoxamid were applied in a variety of forms and at a variety of amounts, application rates, and normalities. Efficacy of the herbicidal compositions was evaluated with reference to a scale of 0% to 100% in comparison with untreated control plots. 0 means no damage to the harmful plants and 100 means complete destruction of the harmful plants. Plants per square meter is indicated by “pl/m^2”, and grams per hectare is indicated by “g/ha”. […]

Stellaria media (STEME) = test: pre-emergence control of STEME in corn (efficacy, Colby synergy); settings: bixlozone 375, pethoxamid 800, tank mix 375 + 800, premix 375 + 775 g/ha
Source text: as §1, §2, §4

[2] = tested on: Xanthium strumarium (XANST); test: pre-emergence control of XANST in corn (efficacy, Colby synergy); settings: bixlozone 375, pethoxamid 300, mixtures 375 + 300 g/ha
Source text: as §1, §2, §4

[3] = tested on: Acalypha virginica (ACCVI); test: pre-emergence control of ACCVI in corn (Colby synergy)
Source text: as §1, §4

[4] = tested on: Lolium multiflorum (LOLMU); test: pre-emergence control of LOLMU in corn (Colby synergy); settings: bixlozone 375, pethoxamid 1200, mixtures 375 + 1200 g/ha
Source text: as §1, §4

[5] = tested on: Tripleurospermum inodorum (MATIN); test: pre-emergence control of MATIN in corn (Colby synergy)
Source text: as §1, §4

[6] = tested on: Panicum dichotomiflorum (PANDI); test: pre-emergence control of PANDI in corn (Colby synergy)
Source text: as §1, §3
(§5) Various forms, compositions, and mixtures of bixlozone and pethoxamid were applied to corn before emergence. […] Mixtures of bixlozone with 1200 g/ha pethoxamid improved weed spectrum on a range of broad leaf weeds (e.g., CHEAL, MATSS, and POLSS) and grasses (e.g., ECHCG, DIGSA, and SETVI). Combinations of bixlozone and pethoxamid in pre-emergence applications were very safe with no clear pethoxamid rate effect.

[7] = tested on: Polygonum aviculare (POLAV); test: pre-emergence control of POLAV in corn (Colby synergy); settings: bixlozone 375, pethoxamid 1200, mixtures 375 + 1200 g/ha
Source text: as §1, §4

[8] = tested on: Portulaca oleracea (POROL); test: pre-emergence control of POROL in corn (Colby synergy)
Source text: as §1, §3, §5

[9] = tested on: Potentilla tridentate (PTLTR); test: pre-emergence control of PTLTR in corn (Colby synergy); settings: bixlozone 375, pethoxamid 1200, mixtures 375 + 1200 g/ha
Source text: as §1, §4

AMBEL = test: pre-emergence control of AMBEL in corn (efficacy); settings: bixlozone 375, pethoxamid 1200, mixtures 375 + 1200 g/ha
Source text: as §5
(§6) Table 8. Efficacies of various forms and mixtures of bixlozone and pethoxamid after pre-emergence application on corn. Weeds were present at ≥5 pl/m^2. Concentrations are shown in parentheses in g/ha.

CAGSE = test: pre-emergence control of CAGSE in corn (efficacy, Colby synergy)
Source text: as §5, §6
(§7) Table 11. Synergy data of various forms and mixtures of bixlozone and pethoxamid after pre-emergence application on corn at the crop row closure stage (BBCH 18). The notations in parentheses show the forms and amounts (in g/ha) of applied bixlozone and pethoxamid, respectively. Where “tank” is noted, the mix is a tank mix. Where “premix” is noted, the mix is a premix. Where there is no notation, the value shown is the Colby calculation for the expected value from separate mixtures.
(§8) Various forms, compositions, and mixtures of bixlozone and pethoxamid were applied to corn before emergence. […] Mixtures of bixlozone with 300 g/ha pethoxamid improved weed spectrum on a range of broad leaf weeds (e.g., SOLNI and ABUTH). […]

ANGAR = test: pre-emergence control of ANGAR in corn (efficacy, Colby synergy); settings: bixlozone 375, pethoxamid 800, tank mix 375 + 800, premix 375 + 775 g/ha
Source text: (§9) Table 10. Synergy data of various forms and mixtures of bixlozone and pethoxamid after pre-emergence application on corn at the crop row closure stage (BBCH 18). […] The notations in parentheses show the forms and amounts (in g/ha) of applied bixlozone and pethoxamid, respectively. Where “tank” is noted, the mix is a tank mix. Where “premix” is noted, the mix is a premix. Where there is no notation, the value shown is the Colby calculation for the expected value from separate mixtures.
as §5, with “800” for “1200”, “CHEAL” for “CHEAL, MATSS,”, “ABUTH)” for “POLSS)”
(§10) Table 12. Efficacies of various forms and mixtures of bixlozone and pethoxamid after pre-emergence application on corn. Weeds were present at ≥5 pl/m^2. Concentrations are shown in parentheses in g/ha.

CHEPO = test: pre-emergence control of CHEPO in corn (efficacy, Colby synergy); settings: bixlozone 375, pethoxamid 800, tank mix 375 + 800, premix 375 + 775 g/ha
Source text: as §9
as §5, with “800” for “1200”, “CHEAL” for “CHEAL, MATSS,”, “ABUTH)” for “POLSS)”
as §10

FUMOF = test: pre-emergence control of FUMOF in corn (efficacy, Colby synergy); settings: bixlozone 375, pethoxamid 800, tank mix 375 + 800, premix 375 + 775 g/ha
Source text: as §9
as §5, with “800” for “1200”, “CHEAL” for “CHEAL, MATSS,”, “ABUTH)” for “POLSS)”
as §10

GALAP = test: pre-emergence control of GALAP in corn (efficacy, Colby synergy)
Source text: as §9
as §5, with “800” for “1200”, “CHEAL” for “CHEAL, MATSS,”, “ABUTH)” for “POLSS)”
as §10
Various forms, compositions, and mixtures of bixlozone and pethoxamid were applied to corn before emergence. […]

DAUCA = test: pre-emergence control of DAUCA in corn (efficacy, Colby synergy); settings: bixlozone 375, pethoxamid 300, mixtures 375 + 300 g/ha
Source text: as §7
as §5, with “300” for “1200”, “SOLNI” for “CHEAL, MATSS,”, “ABUTH).” for “POLSS) and grasses (e.g., ECHCG, DIGSA, and SETVI).”
(§11) Table 13. Efficacies of various forms and mixtures of bixlozone and pethoxamid after pre-emergence application on corn. Weeds were present at ≥5 pl/m^2. Concentrations are shown in parentheses in g/ha.

POAAN = test: pre-emergence control of POAAN in corn (efficacy, Colby synergy); settings: bixlozone 375, pethoxamid 300, mixtures 375 + 300 g/ha
Source text: as §7
as §5, with “300” for “1200”, “SOLNI” for “CHEAL, MATSS,”, “ABUTH).” for “POLSS) and grasses (e.g., ECHCG, DIGSA, and SETVI).”
as §11
Various forms, compositions, and mixtures of bixlozone and pethoxamid were applied to corn before emergence. […] There was equivalent efficacy for fixed rate of bixlozone combined with pethoxamid: 1200 or 900 g/ha. Efficacy was reduced when bixlozone rate decreased from 250 to 150 g/ha.
Table 14. […]

VERPE = test: pre-emergence control of VERPE in corn (efficacy, Colby synergy)
Source text: as §7
as §5, with “800” for “1200”, “CHEAL” for “CHEAL, MATSS,”, “ABUTH)” for “POLSS)”
as §10, §8

POLHY = test: pre-emergence control of POLHY in corn (efficacy); settings: bixlozone 375, pethoxamid 800, tank mix 375 + 800, premix 375 + 775 g/ha
Source text: as §5, with “800” for “1200”, “CHEAL” for “CHEAL, MATSS,”, “ABUTH)” for “POLSS)”
as §10

[10] = bixlozone 375, pethoxamid 300, mixtures 375 + 300 g/ha
[11] = bixlozone 375, pethoxamid 800, tank mix 375 + 800, premix 375 + 775 g/ha
[12] = bixlozone 375, pethoxamid 1200, mixtures 375 + 1200 g/ha

`CCOCCN(C(=O)CCl)C(=C(C)C)c1ccccc1` [pethoxamid] gave an Efficacy (Solanum nigrum (SOLNI); [10]) of 28.8, an Efficacy (Solanum nigrum (SOLNI); [11]) of 52.5 and an Efficacy (Solanum nigrum (SOLNI); [12]) of 76.5. For the same compound, the Efficacy [1, 11] was 80, the Efficacy [1, 12] was 27.5 and the Efficacy (Stellaria media (STEME)) was 91. The Efficacy [2] was 35, the Efficacy [3, 10] was 65 and the Efficacy [3, 12] was 46.3. For the same compound, the Efficacy [4] was 78.8, the Efficacy [5, 10] was 50 and the Efficacy [5, 12] was 100. The Efficacy [6, 10] was 68.8, the Efficacy [6, 11] was 71.3 and the Efficacy [6, 12] was 84.8. It also gave an Efficacy [7] of 77.5, an Efficacy [8, 10] of 48.8 and an Efficacy [8, 11] of 98.8. It also gave an Efficacy [8, 12] of 94.6, an Efficacy [9] of 0 and an Efficacy (AMBEL) of 7.5. The Efficacy (CAGSE; [10]) was 10, the Efficacy (CAGSE; [12]) was 0 and the Efficacy (ANGAR) was 100. For the same compound, the Efficacy (CHEPO) was 30, the Efficacy (FUMOF) was 12.5 and the Efficacy (GALAP; [10]) was 7.5. For the same compound, the Efficacy (GALAP; [11]) was 7.5, the Efficacy (DAUCA) was 83 and the Efficacy (POAAN) was 7.5. For the same compound, the Efficacy (VERPE; [10]) was 46.3, the Efficacy (VERPE; [11]) was 54.4 and the Efficacy (POLHY) was 92.5.
